Test results taken from US10266497B2 (ABIDE THERAPEUTICS, INC., priority 2017, dated 2019).

Experiments:
MAGL [1] = target: T1, MAGL (Homo sapiens, UniProt Q99685); assay: In vitro competitive activity-based protein profiling, MAGL, human; details: for inhibition at 1 µM: read-out: MAGL % inh. 1 μM (human)
T1 sequence (Q99685 1-303): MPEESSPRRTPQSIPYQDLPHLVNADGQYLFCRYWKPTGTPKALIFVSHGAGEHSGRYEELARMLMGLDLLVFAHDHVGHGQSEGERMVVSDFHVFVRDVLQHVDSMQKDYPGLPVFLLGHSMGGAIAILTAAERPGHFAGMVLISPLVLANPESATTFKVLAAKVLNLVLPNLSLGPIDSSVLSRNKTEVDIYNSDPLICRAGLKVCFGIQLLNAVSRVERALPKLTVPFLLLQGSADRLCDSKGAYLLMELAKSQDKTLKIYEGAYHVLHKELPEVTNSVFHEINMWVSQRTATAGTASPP

MAGL [2] = target: T2, MAGL (Mus musculus, UniProt O35678); assay: In vitro competitive activity-based protein profiling, MAGL, mouse; details: read-out: MAGL % inh. 1 μM (mouse)
T2 sequence (O35678 1-303): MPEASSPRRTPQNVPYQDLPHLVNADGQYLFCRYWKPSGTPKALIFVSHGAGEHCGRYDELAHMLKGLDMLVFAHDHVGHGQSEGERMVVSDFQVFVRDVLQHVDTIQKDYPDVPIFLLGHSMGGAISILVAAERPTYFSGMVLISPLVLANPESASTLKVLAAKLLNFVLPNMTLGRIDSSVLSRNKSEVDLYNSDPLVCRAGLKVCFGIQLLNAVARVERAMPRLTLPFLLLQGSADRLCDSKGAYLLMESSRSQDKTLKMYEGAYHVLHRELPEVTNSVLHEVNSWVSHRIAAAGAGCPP

FAAH [3] = target: T3, FAAH (Homo sapiens, UniProt O00519); assay: In vitro competitive activity-based protein profiling, FAAH, human; details: for inhibition at 1 µM: read-out: FAAH % inh. 1 μM (human)
T3 sequence (O00519 1-579): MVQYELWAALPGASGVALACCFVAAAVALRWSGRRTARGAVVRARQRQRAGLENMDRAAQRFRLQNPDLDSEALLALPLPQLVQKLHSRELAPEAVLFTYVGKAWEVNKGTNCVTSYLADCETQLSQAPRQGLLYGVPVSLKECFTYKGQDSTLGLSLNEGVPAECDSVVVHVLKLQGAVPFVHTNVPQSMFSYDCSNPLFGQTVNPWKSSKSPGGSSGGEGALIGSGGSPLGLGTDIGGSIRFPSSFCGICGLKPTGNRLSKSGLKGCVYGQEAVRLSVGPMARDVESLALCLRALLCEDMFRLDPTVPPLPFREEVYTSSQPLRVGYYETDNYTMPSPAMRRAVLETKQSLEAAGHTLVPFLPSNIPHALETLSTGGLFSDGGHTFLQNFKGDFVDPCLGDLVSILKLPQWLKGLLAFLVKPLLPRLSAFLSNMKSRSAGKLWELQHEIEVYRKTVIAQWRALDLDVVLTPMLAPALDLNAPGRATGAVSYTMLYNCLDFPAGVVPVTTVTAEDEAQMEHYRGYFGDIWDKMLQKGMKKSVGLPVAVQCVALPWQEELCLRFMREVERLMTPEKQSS
Experimental: (§1) Biological Evaluation In Vitro Competitive Activity-Based Protein Profiling.
(§2) Proteomes (mouse brain membrane fraction for mouse assays; human prefrontal cortex membrane fractions for human assays) (50 mL, 1.0 mg/mL total protein concentration) were preincubated with varying concentrations of inhibitors at 37° C. After 30 min, FP-Rh (1.0 mL, 50 mM in DMSO) was added and the mixture was incubated for another 30 min at 37° C. Reactions were quenched with SDS loading buffer (15 μL—4λ) and run on SDS-PAGE.

FAAH [4] = target: T4, FAAH (Mus musculus, UniProt O08914); assay: In vitro competitive activity-based protein profiling, FAAH, mouse; details: read-out: FAAH % inh. 1 μM (mouse)
T4 sequence (O08914 1-579): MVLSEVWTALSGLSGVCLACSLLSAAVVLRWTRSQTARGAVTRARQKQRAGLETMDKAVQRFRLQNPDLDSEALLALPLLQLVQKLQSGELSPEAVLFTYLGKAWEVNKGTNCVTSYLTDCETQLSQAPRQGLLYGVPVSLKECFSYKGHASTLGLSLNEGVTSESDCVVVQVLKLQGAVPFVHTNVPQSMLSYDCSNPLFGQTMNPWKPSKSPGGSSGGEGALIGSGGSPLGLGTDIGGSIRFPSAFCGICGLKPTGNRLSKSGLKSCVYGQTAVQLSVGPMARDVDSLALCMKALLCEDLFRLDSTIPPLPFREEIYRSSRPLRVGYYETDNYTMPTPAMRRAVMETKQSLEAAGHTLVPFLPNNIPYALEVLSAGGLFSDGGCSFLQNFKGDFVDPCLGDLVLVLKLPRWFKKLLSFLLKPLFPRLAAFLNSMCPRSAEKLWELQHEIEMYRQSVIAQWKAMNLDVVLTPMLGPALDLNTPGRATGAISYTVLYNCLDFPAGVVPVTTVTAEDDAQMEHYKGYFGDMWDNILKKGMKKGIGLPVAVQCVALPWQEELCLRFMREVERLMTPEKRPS
Experimental: as §1, §2

inhibition at 1 µM (MAGL [1]) [%]	inhibition at 1 µM (MAGL [2]) [%]	inhibition at 1 µM (FAAH [3]) [%]	inhibition at 1 µM (FAAH [4]) [%]	IC50 (FAAH [3]) [nM]	IC50 (MAGL [1]) [nM]	SMILES
> 75	> 75	0 to 25	0 to 25			C[C@@H]1CCCCN1c1cc(C(F)(F)F)ccc1CN1CCN(C(=O)n2ccc(C(=O)O)n2)CC1 [Example 103, (R)-1-(4-(2-(2-methylpiperidin-1-yl)-4-(trifluoromethyl)benzyl)piperazine-1-carbonyl)-1H-pyrazole-3-carboxylic acid]
> 75	> 75	0 to 25	0 to 25			O=C(O)c1ccn(C(=O)N2CCN(Cc3ccc(C(F)(F)F)cc3N3CCC(F)(F)CC3)CC2)n1 [Example 108, 1-(4-(2-(4,4-difluoropiperidin-1-yl)-4-(trifluoromethyl)benzyl)piperazine-1-carbonyl)-1H-pyrazole-3-carboxylic acid]
> 75	> 75	0 to 25	0 to 25			C[C@H]1CCCCN1c1cc(C(F)(F)F)ccc1CN1CCN(C(=O)n2ccc(C(=O)O)n2)CC1 [Example 110, (S)-1-(4-(2-(2-methylpiperidin-1-yl)-4-(trifluoromethyl)benzyl)piperazine-1-carbonyl)-1H-pyrazole-3-carboxylic acid]
> 75	> 75	> 75	> 75	100 to 1000		CN(Cc1cc(Cl)ccc1C(F)(F)F)C1CCN(C(=O)n2cc(Cl)c(C(=O)O)n2)CC1 [Example 112, 4-chloro-1-(4-((5-chloro-2-(trifluoromethyl)benzyl)(methyl)amino)piperidine-1-carbonyl)-1H-pyrazole-3-carboxylic acid]
25 to 50	0 to 25	50 to 75	> 75			O=C(O)c1ccn(C(=O)N2CC3CN(Cc4cc(F)cc(Cl)c4)CC3C2)n1 (centres unmarked) [Example 115, 1-(5-(3-chloro-5-fluorobenzyl)octa-hydropyrrolo[3,4-c]pyrrole-2-carbonyl)-1H-pyrazole-3-carboxylic acid]
50 to 75	50 to 75	0 to 25	50 to 75			O=C(O)c1ccn(C(=O)N2CC3CN(Cc4cccc(OC(F)(F)F)c4)CC3C2)n1 (centres unmarked) [Example 117, 1-(5-(3-(trifluoromethoxy)benzyl)octahydro-pyrrolo[3,4-c]pyrrole-2-carbonyl)-1H-pyrazole-3-carboxylic acid]
50 to 75	25 to 50	0 to 25	50 to 75			O=C(O)c1ccn(C(=O)N2CC3CN(Cc4cccc(C(F)(F)F)c4)CC3C2)n1 (centres unmarked) [Example 122, 1-(5-(3-(trifluoromethyl)benzyl)octahydro-pyrrolo[3,4-c]pyrrole-2-carbonyl)-1H-pyrazole-3-carboxylic acid]
> 75	> 75	> 75	> 75			O=C(O)c1ccn(C(=O)N2C[C@H]3C[C@H](Oc4cccc(-c5ccccc5)c4)C[C@H]3C2)n1 [Example 125, 1-(trans-5-([1,1′-biphenyl]-3-yloxy)octahydro-cyclopenta[c]pyrrole-2-carbonyl)-1H-pyrazole-3-carboxylic acid]
25 to 50	0 to 25	0 to 25	0 to 25			O=C(O)c1ccn(C(=O)N2CCC3(CCCN3Cc3ccc(C(F)(F)F)cc3-c3nnn[nH]3)CC2)n1 [Example 126, 1-(1-(2-(1H-tetrazol-5-yl)-4-(trifluoromethyl)benzyl)-1,8-diazaspiro[4.5]decane-8-carbonyl)-1H-pyrazole-3-carboxylic acid]
> 75	> 75	0 to 25	0 to 25			O=C(O)c1ccn(C(=O)N2CCC3(CCN(Cc4cnccc4C(F)(F)F)C3)CC2)n1 [Example 127]
> 75	> 75	> 75	> 75			CN(Cc1ccccc1Cl)[C@H]1C[C@@H]2CN(C(=O)n3cc(Cl)c(C(N)=O)n3)C[C@@H]2C1 [Example 128]
> 75	> 75	> 75	> 75	100 to 1000		Cc1cn(C(=O)N2CCN(Cc3cccc(Oc4ccc(Cl)cc4)c3)CC2)nc1C(=O)O [Example 129, 1-(4-(3-(4-chlorophenoxy)benzyl)piperazine-1-carbonyl)-4-methyl-1H-pyrazole-3-carboxylic acid]
> 75	> 75	0 to 25	0 to 25	1000 to 10000	100 to 1000	Cc1cn(C(=O)N2CCC3(CC2)CN(Cc2cc(Cl)ccc2C(F)(F)F)C3)nc1C(=O)O [Example 131, 1-(2-(5-chloro-2-(trifluoromethyl)benzyl)-2,7-diazaspiro[3.5]non-ane-7-carbonyl)-4-methyl-1H-pyrazole-3-carboxylic acid]
> 75	> 75	> 75	50 to 75	100 to 1000		O=C(O)c1nn(C(=O)N2CCC3(CC2)CN(Cc2cc(Cl)ccc2C(F)(F)F)C3)cc1Cl [Example 134, 4-chloro-1-(2-(5-chloro-2-(trifluoromethyl)benzyl)-2,7-diazaspiro[3.5]non-ane-7-carbonyl)-1H-pyrazole-3-carboxylic acid]
> 75	> 75	> 75	> 75	100 to 1000		O=C(O)c1nn(C(=O)N2CC3CN(Cc4cc(Cl)ccc4Cl)CC3C2)cc1Cl (centres unmarked) [Example 136, 4-chloro-1-(5-(2,5-dichlorobenzyl)octa-hydropyrrolo[3,4-c]pyrrole-2-carbonyl)-1H-pyrazole-3-carboxylic acid]
> 75	> 75	> 75	> 75	100 to 1000	100 to 1000	O=C(O)c1nn(C(=O)N2CC3CN(Cc4cccc(Oc5ccc(Cl)cc5)c4)CC3C2)cc1Cl (centres unmarked) [Example 137, 4-chloro-1-(5-(3-(4-chlorophenoxy)benzyl)octahydro-pyrrolo[3,4-c]pyrrole-2-carbonyl)-1H-pyrazole-3-carboxylic acid]
> 75	> 75	0 to 25	50 to 75	100 to 1000		O=C(O)c1nn(C(=O)N2CCC3(CCN(Cc4ccc(N5CCCC5)cc4C(F)(F)F)C3)CC2)cc1Cl [Example 138, 4-chloro-1-(2-(4-(pyrrolidin-1-yl)-2-(trifluoromethyl)benzyl)-2,8-diazaspiro[4.5]decane-8-carbonyl)-1H-pyrazole-3-carboxylic acid]
